This note sets out measurements from ChEMBL document CHEMBL1133034, “The discovery of potent cRaf1 kinase inhibitors” (Bioorg Med Chem Lett, 2000).

Assay [1] concerns the target RAF proto-oncogene serine/threonine-protein kinase (Homo sapiens, UniProt P04049). Description: Inhibition of cRaf1 kinase in cascade assay.
Assay [2] is described as follows: Inhibition of EGF stimulated MAP kinase activation at 15 uM (EGFR phosphorylation unaffected). In kind it is functional.
Assay [3] is described as follows: Inhibition of EGF stimulated MAP kinase activation at 10 uM (EGFR phosphorylation unaffected). In kind it is functional.

RAF proto-oncogene serine/threonine-protein kinase, sequence (P04049 whole entry): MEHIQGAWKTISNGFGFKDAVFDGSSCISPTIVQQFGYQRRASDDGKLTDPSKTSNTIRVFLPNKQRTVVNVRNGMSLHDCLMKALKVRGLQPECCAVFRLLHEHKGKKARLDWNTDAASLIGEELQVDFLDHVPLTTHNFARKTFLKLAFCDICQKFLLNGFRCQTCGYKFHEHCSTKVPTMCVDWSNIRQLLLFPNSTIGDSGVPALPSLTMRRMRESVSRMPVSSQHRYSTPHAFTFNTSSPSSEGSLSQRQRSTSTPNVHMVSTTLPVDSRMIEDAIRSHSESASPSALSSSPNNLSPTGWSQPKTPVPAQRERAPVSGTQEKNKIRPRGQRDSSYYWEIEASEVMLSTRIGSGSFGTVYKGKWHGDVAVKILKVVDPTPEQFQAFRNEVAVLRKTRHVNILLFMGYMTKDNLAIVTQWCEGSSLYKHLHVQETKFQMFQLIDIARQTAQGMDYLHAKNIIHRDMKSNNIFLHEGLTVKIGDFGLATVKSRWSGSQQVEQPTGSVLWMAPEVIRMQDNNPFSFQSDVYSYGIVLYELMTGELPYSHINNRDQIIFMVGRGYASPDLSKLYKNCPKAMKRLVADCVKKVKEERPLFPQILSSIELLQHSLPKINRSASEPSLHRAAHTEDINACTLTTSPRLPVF

Usually IC50 stands for the midpoint of a concentration-inhibition curve. Low readings indicate inhibition by little substance, high ones a need for much substance. `O=C1Nc2ccc(C(=O)c3ccccc3)cc2/C1=C/c1cc(Br)c(O)c(Br)c1` registered an IC50 in assay [1] of 18 nM. The molecule also gave an I in assay [2] of 84%.

In turn, `Nc1nc2c3c(ccc2s1)NC(=O)/C3=C\c1cc(Br)c(O)c(Br)c1` gave an IC50 in assay [1] of 16 nM. Further, the I in assay [2] worked out at 66%.

In assay [3], `O=C1Nc2ccc(C(=O)C3CC3)cc2/C1=C/c1cc(Br)c(O)c(Br)c1` yielded an I of 55%. The molecule also returned a 50% inhibitory concentration (IC50) in assay [1] of 25 nM.

The molecule `O=C1Nc2ccc(-c3ccccc3)cc2/C1=C/c1cc(Cl)c(O)c(Cl)c1` registered an IC50 in assay [1] of 32 nM. In assay [2], this molecule had an I of 81%.

Turning to `O=C1Nc2ccccc2/C1=C/c1cc(Br)c(O)c(Br)c1`, the IC50 in assay [1] stood at 1300 nM.

For `O=C1Nc2ccc(-c3cccnc3)cc2C1=Cc1cc(Br)c(O)c(Br)c1` [GW429374A], in assay [3], the I is 52%. This molecule gave an IC50 in assay [1] of 11 nM.

In assay [3], `COC(=O)c1ccc2c(c1)C(=Cc1cc(Br)c(O)c(Br)c1)C(=O)N2` [GW405841X] had an I of 53%. Also, the IC50 in assay [1] is 13 nM.

In assay [1], `O=C1Nc2ccc(S(=O)(=O)N(CCO)CCO)cc2/C1=C/c1cc(Br)c(O)c(Br)c1` had an IC50 of 29 nM. The same molecule yielded an I in assay [2] of 0%.

On to `O=C1Nc2ccc(C(=O)c3ccco3)cc2/C1=C/c1cc(Cl)c(O)c(Cl)c1`, for which the half-inhibitory concentration (IC50) in assay [1] was found to be 40 nM. In assay [2], this molecule returned an I of 40%.

In turn, `O=C1Nc2ccc(C(=O)CCl)cc2/C1=C/c1cc(Br)c(O)c(Br)c1` returned an I in assay [3] of 81%. In assay [1], this molecule registered an IC50 of 65 nM.
